Results taken from paper PMC11477717, “Synthesis of Carborane–Thiazole Conjugates as Tyrosinase and 11β-Hydroxysteroid Dehydrogenase Inhibitors: Antiproliferative Activity and Molecular Docking Studies” (Molecules, 2024).
Where two headings read alike, the source gives them in different places.

What was measured:
[1] = test system: A172 (human brain glioblastoma); experiment: MTT antiproliferative assay, A172; format: cell-based; conditions: for IC50: MTT, 72 h, A172 cells, read-out: IC50 ± SD A172; for SI HUVEC/A172: selectivity index = IC50 normal cell line / IC50 cancer cell line
Method: (§1) All cell lines were obtained from ATCC, and all chemicals were purchased from Sigma-Aldrich, St. Louis, MO, USA. […] All media were supplemented with antibiotic and antimycotic solutions, according to the manufacturers’ instructions. MTT cytotoxicity assessments were performed as described previously. […] The cells counted using an automated cell counter (Countess® II FL, Invitrogen by Thermo Fisher Scientific Inc., Waltham, MA, USA) were plated in 96-well plates (Nunc Edge 2F, Thermo Fisher Scientific Inc.) at a density of 0.1 × 10^4 per well. After an additional 72 h, cells underwent an MTT cytotoxicity assay (see below). The IC50 values were calculated using ED50plus v 1.0 freeware software (Instituto Nacional de Enfermedades Respiratorias, Mexico City, Mexico). Each cell line was tested in three independent replicates.
(§2) After the incubation time was complete, the medium was removed and crystals of formazan were solubilized in pure isopropanol. The absorbance readout was conducted immediately using a plate reader, Multiskan Spectrum, at 570 nm (Thermo Fisher Scientific Inc., Waltham, MA, USA). The background optical density was measured in the wells filled with the culture medium, without any cells.

B16F10 (murine melanoma) = experiment: MTT antiproliferative assay, B16F10; format: cell-based; conditions: for IC50: MTT, 72 h, B16F10 cells, read-out: IC50 ± SD B16F10; for SI HUVEC/ B16F10: selectivity index = IC50 normal cell line / IC50 cancer cell line
Method: as §1, §2

mushroom tyrosinase [2] = target: T1, mushroom tyrosinase (Agaricus bisporus, UniProt C7FF04); experiment: Mushroom tyrosinase inhibition assay (L-DOPA, dopachrome 475 nm); format: biochemical
T1 construct: purchased Sigma-Aldrich
T1 sequence (C7FF04 1-392 limits assumed): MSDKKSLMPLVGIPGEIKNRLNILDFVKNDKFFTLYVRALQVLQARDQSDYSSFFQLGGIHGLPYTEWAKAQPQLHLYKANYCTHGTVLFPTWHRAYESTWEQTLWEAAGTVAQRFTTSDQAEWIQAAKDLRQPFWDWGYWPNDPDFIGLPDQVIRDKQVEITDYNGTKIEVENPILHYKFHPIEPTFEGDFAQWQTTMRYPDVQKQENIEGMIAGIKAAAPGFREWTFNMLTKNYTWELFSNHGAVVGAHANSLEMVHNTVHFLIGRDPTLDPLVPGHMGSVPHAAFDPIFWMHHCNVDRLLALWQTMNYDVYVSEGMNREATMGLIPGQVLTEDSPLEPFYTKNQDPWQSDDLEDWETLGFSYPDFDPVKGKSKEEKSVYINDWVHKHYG
Method: The mushroom tyrosinase (Sigma-Aldrich) inhibition was performed following previously reported methods. […] The inhibitor solutions were prepared in DMSO with an initial concentration of 1 mM. Different aliquots were added to the solution containing the buffer, L-DOPA, and EDTA, with the enzyme being added last. […] Ascorbic acid was used as a reference inhibitor with an initial concentration of 1 mM. The IC50 values were calculated from the equation generated via exponential fit of the experimental data.

[3] = test system: MDA-MB-231 (human breast adenocarcinoma); experiment: MTT antiproliferative assay, MDA-MB-231; format: cell-based; conditions: for IC50: MTT, 72 h, MDA-MB-231 cells, read-out: IC50 ± SD MDA-MB-231; for SI HUVEC/ MDA-MB-231: selectivity index = IC50 normal cell line / IC50 cancer cell line
Method: as §1, §2

[4] = test system: HUVEC (human umbilical vein endothelial cells); experiment: MTT antiproliferative assay, HUVEC healthy control; format: cell-based; conditions: 72 h, HUVEC normal cells, read-out: IC50 ± SD HUVEC
Method: All cell lines were obtained from ATCC, and all chemicals were purchased from Sigma-Aldrich, St. Louis, MO, USA. Briefly, cells were cultivated in a controlled atmosphere using DMEM medium with fetal bovine serum (FBS) at a final concentration of 10% (A-172), an L15 medium with 15% FBS, cultivated without CO2 (MDA-MB-231), F12K with a heparin final concentration of 0.1 mg/mL, endothelial cell growth supplement with a final concentration of 0.03 mg/mL (HUVEC), and RPMI with 5% FBS. All media were supplemented with antibiotic and antimycotic solutions, according to the manufacturers’ instructions. MTT cytotoxicity assessments were performed as described previously. Briefly, cell lines A172, B16F10, MDA-MB-231, and HUVEC were seeded 24 h prior to the addition of the tested compounds. The cells counted using an automated cell counter (Countess® II FL, Invitrogen by Thermo Fisher Scientific Inc., Waltham, MA, USA) were plated in 96-well plates (Nunc Edge 2F, Thermo Fisher Scientific Inc.) at a density of 0.1 × 10^4 per well. After an additional 72 h, cells underwent an MTT cytotoxicity assay (see below). The IC50 values were calculated using ED50plus v 1.0 freeware software (Instituto Nacional de Enfermedades Respiratorias, Mexico City, Mexico). Each cell line was tested in three independent replicates.
as §2, with “Twenty microliters of an MTT solution (MTT: 3-(4,5-dimethylthiazol-2-yl)-2,5-diphenyl tetrazolium bromide, stock solution: 5 mg/mL) was added to each cell line for 2 h (A172, B16F10, MDA-MB-231, and HUVEC). After” for “After”

mushroom tyrosinase [5] = target: T1, mushroom tyrosinase; experiment: Kinetic analysis of the inhibition of tyrosinase (Lineweaver-Burk); format: biochemical; conditions: compound at 0.05 mM; for Mechanism of Inhibition: Lineweaver-Burk plots; for Vmax: L-DOPA 100-250 µM
Method: A series of experiments were performed to determine the inhibition kinetics of compounds by following the already reported method. The inhibitor concentrations for compounds were 50 and 100 µM. The substrate L-DOPA concentration was between 100 and 250 µM in all kinetic studies. Maximal initial velocity was determined from the initial linear portion of absorbance up to ten minutes after the addition of the enzyme. The inhibition type of the enzyme, Michaelis constant (KM), and maximal velocity (Vmax) were determined by Lineweaver–Burk plots of the inverse of velocities (1/V) versus the inverse of substrate concentration 1/[L-DOPA] mM^−1.

11β-HSD1 = target: T2, 11β-HSD1 (Homo sapiens, UniProt P28845); experiment: Inhibition of 11β-HSD1 assay (cortisone to cortisol, microsomes, cortisol ELISA); format: biochemical
T2 construct: tissue XenoTech Lot No. 1410013; host or cells: pooled human liver microsomes
T2 sequence (P28845 whole entry): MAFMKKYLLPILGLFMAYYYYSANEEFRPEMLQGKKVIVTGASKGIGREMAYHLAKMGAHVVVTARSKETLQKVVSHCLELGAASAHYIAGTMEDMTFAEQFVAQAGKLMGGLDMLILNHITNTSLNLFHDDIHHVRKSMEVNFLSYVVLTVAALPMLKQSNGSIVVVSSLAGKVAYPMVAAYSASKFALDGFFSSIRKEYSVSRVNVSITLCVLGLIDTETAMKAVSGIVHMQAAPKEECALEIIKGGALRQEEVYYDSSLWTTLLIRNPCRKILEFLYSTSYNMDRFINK
Method: L160706125, was obtained from Cloud-Clone Corp. PBS, Lot No. H161008, was obtained from Pan Biotech. […] L191113457, was obtained from Cloud-Clone Corp. […] The microplates were incubated on an orbital shaker for 150 min at 37 °C. […] The quantity of cortisol formed from cortisone was determined using a cortisol ELISA kit, […].

11β-HSD2 = target: T3, 11β-HSD2 (Homo sapiens, UniProt P80365); experiment: Inhibition of 11β-HSD2 assay (cortisol to cortisone, microsomes, cortisol ELISA); format: biochemical; conditions: inhibitor 10 µM, 150 min, 37 °C
T3 construct: Human kidney microsomes, mixed gender, 0.5 mL, 10 mg/mL, Lot No. 1710160, were obtained from XenoTech; tissue XenoTech Lot No. 1710160; host or cells: human kidney microsomes
T3 sequence (P80365 1-405): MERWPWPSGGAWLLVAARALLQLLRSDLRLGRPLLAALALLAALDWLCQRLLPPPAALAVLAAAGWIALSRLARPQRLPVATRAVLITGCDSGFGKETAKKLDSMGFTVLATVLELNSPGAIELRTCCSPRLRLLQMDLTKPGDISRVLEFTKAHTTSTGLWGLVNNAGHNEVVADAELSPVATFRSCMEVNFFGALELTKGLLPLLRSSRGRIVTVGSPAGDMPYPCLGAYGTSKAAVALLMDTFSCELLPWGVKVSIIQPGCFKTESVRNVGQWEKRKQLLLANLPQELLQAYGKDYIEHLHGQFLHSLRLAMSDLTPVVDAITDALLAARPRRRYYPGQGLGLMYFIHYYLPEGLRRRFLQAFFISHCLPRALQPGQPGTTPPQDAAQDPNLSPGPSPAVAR
Method: The Enzyme-Linked Immunosorbent Assay (ELISA) Kit for 11-Beta-Hydroxysteroid Dehydrogenase Type 1, Lot No. L160706125, was obtained from Cloud-Clone Corp. PBS, Lot No. H161008, was obtained from Pan Biotech. […] The Enzyme-Linked Immunosorbent Assay (ELISA) Kit for 11-Beta-Hydroxysteroid Dehydrogenase Type 2, Lot No. L191113457, was obtained from Cloud-Clone Corp.
The oxidation reaction of cortisol to cortisone was carried out on 96-well microtiter plates in the presence of the enzyme 11β-HSD2 in a total volume of 100 µL. To this end, 60 µL of phosphate buffer (pH 7.4), 10 µL of a microsomes(0.12 µg/mL […]) solution in PBS (final quantity 2.5 µg), 20 µL of substrate mixture cortisol/NAD (final concentration 200 nM/2 mM), and 10 µL of the appropriate inhibitor solution (solvent DMSO/water 1/99, final concentration 10 µM) were placed in each well. The microplates were incubated on an orbital shaker for 150 min at 37 °C. […] The quantity of unreacted cortisol was determined using a cortisol ELISA kit DiaMetra.

[6] = L-DOPA 0.17 mM, pH 6.8, room temperature, read-out: IC50 ± SD mushroom tyrosinase
[7] = rounded values in SAR summary, unit mM, read-out: IC50 tyrosinase inhibition
[8] = 5 inhibitor concentrations, three independent determinations, read-out: IC50 ± SD 11β-HSD1
[9] = inhibitor 10 µM, 150 min, 37 °C
[10] = values in SAR summary, unit inferred, read-out: IC50 11β-HSD1 (unit inferred)

Molecule	IC50 [1] [µM]	IC50 (B16F10 (murine melanoma)) [µM]	SI HUVEC/ B16F10 (B16F10 (murine melanoma))	IC50 (mushroom tyrosinase [2]; [6]) [mM]	IC50 [3] [µM]	IC50 [4] [µM]	Mechanism of Inhibition (mushroom tyrosinase [5])	Vmax (mushroom tyrosinase [5]) [mM/min]	SI HUVEC/A172 [1]	IC50 (mushroom tyrosinase [2]; [7]) [mM]	SI HUVEC/ MDA-MB-231 [3]	IC50 (11β-HSD1; [8]) [µM]	% of 11β-HSD1 Inhibition 10 μM (11β-HSD1; [9]) [%]	IC50 (11β-HSD1; [10]) [µM]	% of 11β-HSD2 Inhibition 10 μM (11β-HSD2) [%]	inhibition at 10 µM (11β-HSD1; [9]) [%]	IC50 ([1]; Homo sapiens, A 172) [µM]	IC50 (B16F10 (murine melanoma); Mus musculus, B16-F10) [µM]	IC50 ([3]; Homo sapiens) [µM]	IC50 ([4]; Homo sapiens) [µM]
2-(2-(1,2-Dicarba-closo-Dodecaboranylmethylene)Hydrazinyl)-4-(3,4,5-Trimethoxyphenyl)Thiazole [4i]	> 10	5.88	>1.70	0.18 ± 0.00783	> 10	> 10	Mixed	0.5474												
2-(2-(1,2-Dicarba-closo-Dodecaboranylmethylene)Hydrazinyl)-4-(3,4-Dichlorophenyl)Thiazole [4e]	6.44 ± 0.6	5.58 ± 0.35	1.41	0.142 ± 0.013	6.99 ± 2.27	7.86 ± 0.61	Activator	0.1575	1.22	0.142	1.12	7.9 ± 1.4	62.17	7.9 to 8.1	19.34					
2-(2-(1,2-Dicarba-closo-Dodecaboranylmethylene)Hydrazinyl)-4-(4-Fluorphenyl)Thiazole [4c]	7.1 ± 1.9	5.57 ± 0.39	1.35	0.143 ± 0.00938	6.02 ± 0.08	7.51 ± 0.64	Activator	0.0810	1.06		1.25	8.1 ± 2	55.74	7.9 to 8.1	21.70					
2-(2-(1,2-Dicarba-closo-Dodecaboranylmethylene)Hydrazinyl)-4-(4-Methoxyphenyl)Thiazole [4f]	> 10	5.81 ± 0.82	>1.72	0.0494 ± 0.00801	7.32 ± 1.26	> 10	tyrosinase activator	0.1472			>1.37	9.35 ± 1.85	55.54		29.25					
4-(2-(2-(1,2-Dicarba-closo-Dodecaboranylmethylene)Hydrazinyl)Thiazol-4-yl)Benzene-1-Sulfonyl Fluoride [4j]	6.4 ± 0.71	5.75 ± 0.46	>1.74		6.43 ± 0.23	> 10	Mixed	0.7876	>1.56		>1.56									
4-(2-(2-(1,2-Dicarba-closo-Dodecaboranylmethylene)Hydrazinyl)Thiazol-4-yl)Benzonitrile [4h]	7.72 ± 1.25	5.56 ± 0.3	1.11		6.64 ± 0.81	6.17 ± 0.35	Mixed	0.1258	0.80		0.93									
4-(Adamant-1-yl)-2-(2-(1,2-Dicarba-closo-Dodecaboranylmethylene)Hydrazinyl)Thiazole [4k]	> 10	> 10		0.134 ± 0.00584	> 10	5.86 ± 0.34	Mixed	0.7863		0.134										
O=C1O[C@H]([C@@H](O)CO)C(O)=C1O [Ascorbic acid, reference compound]				0.387 ± 0.012																
CC1(C)[C@@H](OC(=O)CCC(=O)O)CC[C@]2(C)[C@H]3C(=O)C=C4[C@@H]5C[C@@](C)(C(=O)O)CC[C@]5(C)CC[C@@]4(C)[C@]3(C)CC[C@@H]12 [Carbenoxolone, carbenoxolone, reference compound]																88.9				
O=C(O)CCCc1ccc(N(CCCl)CCCl)cc1 [chlorambucil, reference compound]			1.37														> 10	5.44 ± 0.19	> 10	7.43 ± 0.54
